Values of other authors, collected in patent publication US20070190114A1, “Antioxidant health lozenges” (priority 2006, published 2007).

How the values were obtained:
[1] = daily dose of 600 mg
peripheral lymphocytes = peripheral lymphocytes in smokers
alveolar macrophages = alveolar macrophages in smokers

## CC(=O)N[C@@H](CS)C(=O)O [N-acetyl cysteine]
[1]
  cancer chemopreventive effect: effective cancer chemopreventive agent

## O=C(O[C@@H]1Cc2c(O)cc(O)cc2O[C@@H]1c1cc(O)c(O)c(O)c1)c1cc(O)c(O)c(O)c1 [epigallocatechin gallate]
Peripheral lymphocytes
  sister-chromatid exchange: stabilize sister-chromatid exchange in peripheral lymphocytes in smokers to a level comparable to non-smokers

## Oc1ccc(C=Cc2cc(O)cc(O)c2)cc1 [resveratrol]
Alveolar macrophages
  basal release of inflammatory cytokine: inhibits basal release of inflammatory cytokine from alveolar macrophages in smokers
